# Data published in patent US20210009564A1, “CALPAIN MODULATORS AND THERAPEUTIC USES THEREOF” (BLADE THERAPERTICS, INC., priority 2018, published 2021).
# What was measured:
# Human Calpain 9/NS1 = biological target: T1, Human Calpain 9/NS1 (Homo sapiens, UniProt O14815); assay: Calpain inhibition, continuous fluorescence (FRET substrate) assay, calpain 9; assay type: biochemical; details: SensoLyte 520 FRET substrate, 25C
# T1 sequence (O14815 1-690): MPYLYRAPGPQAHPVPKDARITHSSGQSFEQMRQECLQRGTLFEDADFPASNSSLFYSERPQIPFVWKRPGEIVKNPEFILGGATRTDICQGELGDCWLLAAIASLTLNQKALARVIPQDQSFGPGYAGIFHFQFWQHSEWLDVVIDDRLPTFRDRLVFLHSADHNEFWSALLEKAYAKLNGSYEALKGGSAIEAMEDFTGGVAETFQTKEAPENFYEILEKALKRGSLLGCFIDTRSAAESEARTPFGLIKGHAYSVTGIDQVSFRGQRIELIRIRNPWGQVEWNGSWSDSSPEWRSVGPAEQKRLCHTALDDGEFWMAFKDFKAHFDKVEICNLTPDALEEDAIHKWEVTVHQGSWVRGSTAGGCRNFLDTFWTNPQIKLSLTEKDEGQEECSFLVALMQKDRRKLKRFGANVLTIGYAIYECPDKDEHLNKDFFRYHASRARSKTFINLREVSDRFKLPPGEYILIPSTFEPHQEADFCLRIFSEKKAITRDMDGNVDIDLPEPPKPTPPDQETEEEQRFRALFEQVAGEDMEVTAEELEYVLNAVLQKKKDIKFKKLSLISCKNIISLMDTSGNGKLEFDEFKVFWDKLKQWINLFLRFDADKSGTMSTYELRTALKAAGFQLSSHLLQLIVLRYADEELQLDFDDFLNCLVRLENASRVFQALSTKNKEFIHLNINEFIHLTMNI
# T1 sequence (P04632 1-268 partner): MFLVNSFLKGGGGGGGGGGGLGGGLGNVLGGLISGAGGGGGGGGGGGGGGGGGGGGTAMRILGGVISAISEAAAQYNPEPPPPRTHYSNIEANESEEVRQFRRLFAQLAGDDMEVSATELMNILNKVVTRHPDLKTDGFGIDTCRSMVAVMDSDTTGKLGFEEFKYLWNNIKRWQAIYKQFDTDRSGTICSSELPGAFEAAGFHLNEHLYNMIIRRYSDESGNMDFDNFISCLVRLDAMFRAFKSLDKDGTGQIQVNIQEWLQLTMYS
# In short: (§1)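 Calpains preincubated with serially diluted inhibitors at 25 °C in 50 mM Tris pH 7.5, 100 mM NaCl, 1 mM DTT; CaCl2 plus 5-FAM/QXL 520 FRET substrate started the reaction. Fluorescence (490/520 nm) read 10 min; rates from 1-5 min slopes, IC50 from 4-parameter logistic fit.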
# Human Calpain 2/NS1 = biological target: T2, Human Calpain 2/NS1 (Homo sapiens, UniProt P17655); assay: Calpain inhibition, continuous fluorescence (FRET substrate) assay, calpain 2; assay type: biochemical; details: SensoLyte 520 FRET substrate, 25C
# T2 sequence (P17655 1-700): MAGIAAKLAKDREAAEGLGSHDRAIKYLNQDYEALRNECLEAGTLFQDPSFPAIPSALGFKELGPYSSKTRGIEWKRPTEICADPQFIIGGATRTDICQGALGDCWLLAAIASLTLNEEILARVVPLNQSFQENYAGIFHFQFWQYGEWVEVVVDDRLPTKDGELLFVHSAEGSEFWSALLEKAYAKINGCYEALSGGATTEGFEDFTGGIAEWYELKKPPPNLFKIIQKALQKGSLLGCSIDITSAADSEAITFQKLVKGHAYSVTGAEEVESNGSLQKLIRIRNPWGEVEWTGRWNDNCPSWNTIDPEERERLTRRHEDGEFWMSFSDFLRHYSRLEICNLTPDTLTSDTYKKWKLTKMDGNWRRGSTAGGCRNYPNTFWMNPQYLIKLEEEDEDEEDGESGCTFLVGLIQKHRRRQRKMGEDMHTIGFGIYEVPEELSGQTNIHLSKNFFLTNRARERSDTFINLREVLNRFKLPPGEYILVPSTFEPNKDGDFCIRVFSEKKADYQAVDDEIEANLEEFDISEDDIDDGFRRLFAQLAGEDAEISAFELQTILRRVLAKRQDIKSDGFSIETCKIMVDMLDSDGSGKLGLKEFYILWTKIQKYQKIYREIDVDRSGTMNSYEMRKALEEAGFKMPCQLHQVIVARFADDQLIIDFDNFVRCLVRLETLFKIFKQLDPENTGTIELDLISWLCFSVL
# T2 sequence (P04632 1-268 partner): T1 sequence (P04632 1-268 partner)
# In short: as §1
# [1] = tested on: Calpain activity in SH-SY5Y cells; assay: SH-SY5Y spectrin breakdown product (SBDP-150) western blot assay; assay type: cell-based; details: Homo sapiens; SH-SY5Y cells, 25 uM A23187, SBDP-150 western blot; read-out: SH-SY5Y Spectrin IC50
# [2] = tested on: Calpain activity in SH-SY5Y cells; assay: SH-SY5Y Suc-LLVY-AMC fluorescence assay; assay type: cell-based; details: Homo sapiens; SH-SY5Y cells, 100 uM Suc-LLVY-AMC; read-out: SH-SY5Y + AMC IC50
# Human Calpain 1/NS1 = biological target: T3, Human Calpain 1/NS1 (Homo sapiens, UniProt P07384); assay: Calpain inhibition, continuous fluorescence (FRET substrate) assay, calpain 1; assay type: biochemical; details: SensoLyte 520 FRET substrate, 25C
# T3 sequence (P07384 1-714): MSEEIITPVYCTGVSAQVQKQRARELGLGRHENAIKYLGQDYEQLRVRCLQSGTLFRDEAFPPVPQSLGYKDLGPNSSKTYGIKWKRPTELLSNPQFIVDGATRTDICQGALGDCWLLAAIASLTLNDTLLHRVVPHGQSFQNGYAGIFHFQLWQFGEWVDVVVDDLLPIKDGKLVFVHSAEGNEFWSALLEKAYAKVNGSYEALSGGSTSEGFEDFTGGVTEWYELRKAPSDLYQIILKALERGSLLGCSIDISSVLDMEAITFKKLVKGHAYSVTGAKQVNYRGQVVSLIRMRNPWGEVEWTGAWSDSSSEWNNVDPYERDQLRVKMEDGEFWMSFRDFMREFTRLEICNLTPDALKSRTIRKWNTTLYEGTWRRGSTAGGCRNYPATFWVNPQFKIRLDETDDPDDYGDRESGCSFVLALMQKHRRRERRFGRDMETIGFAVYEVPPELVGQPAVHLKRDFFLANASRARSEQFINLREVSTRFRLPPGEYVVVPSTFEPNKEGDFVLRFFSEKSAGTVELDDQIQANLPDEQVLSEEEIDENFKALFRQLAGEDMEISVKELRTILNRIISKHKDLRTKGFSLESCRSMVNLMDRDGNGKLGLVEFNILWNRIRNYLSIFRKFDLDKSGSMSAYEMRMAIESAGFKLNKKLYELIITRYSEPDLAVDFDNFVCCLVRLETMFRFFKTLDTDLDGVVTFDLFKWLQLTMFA
# T3 sequence (P04632 1-268 partner): T1 sequence (P04632 1-268 partner)
# In short: as §1
IC50 (Human Calpain 9/NS1) [µM],IC50 (Human Calpain 2/NS1) [µM],IC50 [1] [µM],IC50 [2] [µM],IC50 (Human Calpain 1/NS1) [µM],Compound
< 3,< 3,> 25,< 10,< 3,"Cn1cc(C(=O)NC(Cc2ccccc2)C(=O)C(=O)O)c(-c2cccc(F)c2)n1 (centres unmarked) [Compound 72, 3-(3-(3-FLUOROPHENYL)-1-METHYL-1H-PYRAZOLE-4-CARBOXAMIDO)-2-OXO-4-PHENYLBUTANOIC ACID]"
< 3,< 3,10 to 25,< 10,< 3,"Cc1cc(-c2nc(C)oc2C(=O)NC(Cc2ccccc2)C(=O)C(N)=O)c(C)o1 (centres unmarked) [Compound 78, N-(4-AMINO-3,4-DIOXO-1-PHENYLBUTAN-2-YL)-4-(2,5-DIMETHYLFURAN-3-YL)-2-METHYLOXAZOLE-5-CARBOXAMIDE]"
< 3,< 3,< 10,< 10,< 3,"NC(=O)C(=O)C(Cc1ccccc1)NC(=O)c1nsnc1-c1ccoc1Cl (centres unmarked) [Compound 79, N-(4-AMINO-3,4-DIOXO-1-PHENYLBUTAN-2-YL)-4-(2-CHLOROFURAN-3-YL)-1,2,5-THIADIAZOLE-3-CARBOXAMIDE]"
< 3,< 3,< 10,< 10,< 3,"Cc1nc(-c2ccccc2F)c(C(=O)NC(Cc2ccccc2F)C(=O)C(N)=O)o1 (centres unmarked) [Compound 80, N-(4-AMINO-1-(2-FLUOROPHENYL)-3,4-DIOXOBUTAN-2-YL)-4-(2-FLUOROPHENYL)-2-METHYLOXAZOLE-5-CARBOXAMIDE]"
< 3,< 3,10 to 25,< 10,< 3,"Cc1nc(-c2cc(Cl)oc2Cl)c(C(=O)NC(Cc2ccccc2)C(=O)C(N)=O)o1 (centres unmarked) [Compound 81, N-(4-AMINO-3,4-DIOXO-1-PHENYLBUTAN-2-YL)-4-(2,5-DICHLOROFURAN-3-YL)-2-METHYLOXAZOLE-5-CARBOXAMIDE]"
> 10,> 10,> 25,> 25,> 10,"N#CC(Cc1ccccc1)NC(=O)c1nsnc1-c1ccccc1 (centres unmarked) [Compound 82, N-(1-CYANO-2-PHENYLETHYL)-4-PHENYL-1,2,5-THIADIAZOLE-3-CARBOXAMIDE]"
< 3,< 3,> 25,< 10,< 3,"Cc1nc(-c2ccccc2F)c(C(=O)NC(Cc2ccccc2Cl)C(=O)C(N)=O)o1 (centres unmarked) [Compound 83, N-(4-AMINO-1-(2-CHLOROPHENYL)-3,4-DIOXOBUTAN-2-YL)-4-(2-FLUOROPHENYL)-2-METHYLOXAZOLE-5-CARBOXAMIDE]"
< 3,< 3,10 to 25,< 10,< 3,"Cc1nc(-c2ccoc2C)c(C(=O)NC(Cc2ccccc2)C(=O)C(N)=O)o1 (centres unmarked) [Compound 84, N-(4-AMINO-3,4-DIOXO-1-PHENYLBUTAN-2-YL)-2-METHYL-4-(2-METHYLFURAN-3-YL)OXAZOLE-5-CARBOXAMIDE]"
> 10,> 10,> 25,< 10,> 10,"O=C(NC(Cc1ccccc1)C(=O)c1ncco1)c1nsnc1-c1ccccc1 (centres unmarked) [Compound 85, N-(1-(OXAZOL-2-YL)-1-OXO-3-PHENYLPROPAN-2-YL)-4-PHENYL-1,2,5-THIADIAZOLE-3-CARBOXAMIDE]"
> 10,> 10,> 25,> 25,> 10,"O=C(NC(Cc1ccccc1)C(=O)c1nc2ccccc2o1)c1nsnc1-c1ccccc1 (centres unmarked) [Compound 86, N-(1-(BENZO[d]OXAZOL-2-YL)-1-OXO-3-PHENYLPROPAN-2-YL)-4-PHENYL-1,2,5-THIADIAZOLE-3-CARBOXAMIDE]"
< 3,< 3,10 to 25,< 10,< 3,"Cc1nc(-c2ccccc2F)c(C(=O)NC(Cc2cccc(F)c2)C(=O)C(N)=O)o1 (centres unmarked) [Compound 87, N-(4-AMINO-1-(3-FLUOROPHENYL)-3,4-DIOXOBUTAN-2-YL)-4-(2-FLUOROPHENYL)-2-METHYLOXAZOLE-5-CARBOXAMIDE]"
< 3,< 3,> 25,< 10,< 3,"Cc1nc(-c2cccc3sccc23)c(C(=O)NC(Cc2ccccc2)C(=O)C(N)=O)o1 (centres unmarked) [Compound 88, N-(4-AMINO-3,4-DIOXO-1-PHENYLBUTAN-2-YL)-4-(BENZO[b]THIOPHEN-4-YL)-2-METHYLOXAZOLE-5-CARBOXAMIDE]"
< 3,< 3,< 10,< 10,< 3,"Cc1nc(-c2ccccc2F)c(C(=O)NC(Cc2cccc(Cl)c2)C(=O)C(N)=O)o1 (centres unmarked) [Compound 89, N-(4-AMINO-1-(3-CHLOROPHENYL)-3,4-DIOXOBUTAN-2-YL)-4-(2-FLUOROPHENYL)-2-METHYLOXAZOLE-5-CARBOXAMIDE]"
< 3,< 3,10 to 25,< 10,< 3,"Cc1nc(-c2ccoc2Cl)c(C(=O)NC(Cc2ccccc2)C(=O)C(N)=O)o1 (centres unmarked) [Compound 90, N-(4-AMINO-3,4-DIOXO-1-PHENYLBUTAN-2-YL)-4-(2-CHLOROFURAN-3-YL)-2-METHYLOXAZOLE-5-CARBOXAMIDE]"
< 3,< 3,< 10,< 10,< 3,"Cc1nc(-c2cccc3ccsc23)c(C(=O)NC(Cc2ccccc2)C(=O)C(N)=O)o1 (centres unmarked) [Compound 91, N-(4-AMINO-3,4-DIOXO-1-PHENYLBUTAN-2-YL)-4-(BENZO[b]THIOPHEN-7-YL)-2-METHYLOXAZOLE-5-CARBOXAMIDE]"
< 3,< 3,10 to 25,< 10,< 3,"Cc1nc(-c2coc(Cl)c2)c(C(=O)NC(Cc2ccccc2)C(=O)C(N)=O)o1 (centres unmarked) [Compound 92, N-(4-AMINO-3,4-DIOXO-1-PHENYLBUTAN-2-YL)-4-(5-CHLOROFURAN-3-YL)-2-METHYLOXAZOLE-5-CARBOXAMIDE]"
